Test results taken from patent US20230277505A1 (Arena Pharmaceuticals, Inc., priority 2003, published 2023).
Like-named read-outs stand apart in the source and are kept apart here.

Assays:
[1] = test system: DOI-induced hypolocomotion in rats; experiment: Attenuation of DOI-induced hypolocomotion in rats; format: in vivo, rat; conditions: 50 μmol/kg p.o. 60 min before DOI 0.3 mg/kg s.c.
Method: In this example, compounds of the invention, such as Compound 1 and Compound 26, were tested for inverse agonist activity by determining whether these compounds could attenuate DOI-induced hypolocomotion in rats in a novel environment. DOI is a potent 5HT2A/2C receptor agonist that crosses the blood-brain barrier.
Male Sprague-Dawley rats (Harlan, San Diego, Calif.) weighing between 200-300 g were used for all tests. Rats were housed three to four per cage. These rats were naïve to experimental testing and drug treatment. Rats were handled one to three days before testing to acclimate them to experimental manipulation. Rats were fasted overnight prior to testing.
(R)-DOI HCl (C11H16INO2·HCl) was obtained from Sigma-Aldrich, and was dissolved in 0.9% saline. Compounds of the invention were synthesized at Arena Pharmaceuticals Inc. and were dissolved in 100% PEG400. […]
The “Motor Monitor” (Hamilton-Kinder, Poway, Calif.) was used for all activity measurement. This apparatus recorded rears using infrared photobeams. […]
In determining the effects of compounds of the invention on DOI-induced hypoactivity, animals were first injected with vehicle or the compound of the invention (50 μmol/kg) in their home cages. […] 10 min after DOI administration, animals were placed into the activity apparatus and rearing activity was measured for 10 minutes.
Results (total rears over 10 minutes) were analyzed by t-test. […]

[2] = Plasma drug concentration in the PET occupancy study; format: in vivo, rhesus monkey; conditions: 0.5 mg/kg i.v.; after 8 hours
Method: The monkey was anesthetized by using ketamine (10 mg/kg) and was maintained using 0.7 to 1.25% isoflurane. Typically, the monkey had two i.v. lines, one on each arm. One i.v. line was used to administer the radioligand, while the other line was used to draw blood samples for pharmacokinetic data of the radioligand as well as the cold drugs. Generally, rapid blood samples were taken as the radioligand is administered which then taper out by the end of the scan. A volume of approximately 1 ml of blood was taken per time point, which was spun down, and a portion of the plasma was counted for radioactivity in the blood.
The results of both an 8 hour and 24 hour study are shown. The test compound was administered via i.v. infusion in 5.0 ml of 80% PEG400. For the 8 hour study, venous blood samples were drawn at 5 minutes post Compound 1 and 15 minutes before PET scan. For the 24 hour study, venous blood samples were drawn at 5 minutes post Compound 1 and 10 minutes before PET scan.

[3] = target: 5HT2A receptor (Macaca mulatta (Rhesus macaque), UniProt P50128); experiment: Serotonin 5-HT2A receptor occupancy study in monkey (PET, 18F-altanserin); format: in vivo; conditions: iv
[4] = test system: male Wistar rats; experiment: Effect on delta power, sleep and wakefulness in rats (EEG/EMG); format: in vivo, rat; conditions: oral gavage
Method: In this example, the effect of Compounds of the Invention, such as Compound 1 and Compound 26, on sleep and wakefulness was compared to the reference drug zolpidem. Drugs were administered during the middle of the light period (inactivity period).
Briefly, four compounds of the invention, including Compound 1 (1.0 mg/kg) and Compound 26 (1.4 mg/kg), were tested for their effects on sleep parameters and were compared to zolpidem (5.0 mg/kg, Sigma, St. Louis, Mo.) and vehicle control (80% Tween 80, Sigma, St. Louis, Mo.). A repeated measures design was employed in which each rat was to receive seven separate dosings via oral gavage. The first and seventh dosings were vehicle and the second through sixth were the test compounds and zolpidem given in counter-balanced order. Since all dosings were administered while the rats were connected to the recording apparatus, 60% CO2/40% O2 gas was employed for light sedation during the oral gavage process. Rats appeared fully recovered within 60 seconds following the procedure. A minimum of three days elapsed between dosings. […] Dosing typically occurred between 13:15 and 13:45 using a 24 hour notation. All dosing solutions were made fresh on the day of dosing. Following each dosing, animals were continuously recorded until lights out the following day (˜30 hours).
Animals were housed in a temperature controlled recording room under a 12/12 light/dark cycle (lights on at 7:00 am) and had food and water available ad libitum. Room temperature (24+2° C.), humidity (50+20% relative humidity) and lighting conditions were monitored continuously via computer. Drugs were administered via oral gavage as described above, with a minimum of three days between dosings. Animals were inspected daily in accordance with NIH guidelines. […]
EEG and EMG data were scored visually in 10 second epochs for waking (W), REMS, NREMS. Scored data were analyzed and expressed as time spent in each state per half hour. Sleep bout length and number of bouts for each state were calculated in hourly bins. […]

[5] = 24 months of treatment; patients; cited from earlier work
[6] = glaucoma patients; cited from earlier work

Structure (SMILES) | DOI-induced hypolocomotion (total rears over 10 minutes) [1] | test drug concentrations in plasma samples [2] | receptor occupancy at 0.5 mg/kg ([3]; read-out: 5HT2A receptor occupancy, 0.5 mg/kg i.v., 8 hours following drug administration, cortical regions) | receptor occupancy at 0.5 mg/kg ([3]; read-out: 5HT2A receptor occupancy, 0.5 mg/kg i.v., 24 hours post-injection) | NREMS bout length ([4]; 1.0 mg/kg, second hour) | REMS bout length ([4]; Compound 1 1.0 mg/kg, Compound 26 1.4 mg/kg, fourth hour) | delta power during NREMS ([4]; Compound 1 1.0 mg/kg, Compound 26 1.4 mg/kg, second hour following dosing (15:00), vs vehicle) | urinary albumin excretion level [5] | IOP [6]
COc1ccc(NC(=O)Nc2ccc(Cl)cc2)cc1-c1c(Br)cnn1C [Compound 1, 1-[3-(4-Bromo-2-methyl-2H-pyrazol-3-yl)-4-methoxy-phenyl]-3-(4-Chloro-phenyl)-urea] | attenuated DOI-induced hypolocomotion | no measurable test drug concentrations | ~90% | ~80% | significantly increased | significantly increased | significantly increased |  | 
COc1cccc(CCc2ccccc2OCC(CN(C)C)OC(=O)CCC(=O)O)c1 (stereo not drawn) [sarpogrelate] |  |  |  |  |  |  |  | significantly reduced | significantly lower
